Measurements from patent publication US20130136772A1, “REGULATION OF IMMUNE RESPONSE BY COLOCYNTHIN AND/OR ITS DERIVATIVES” (priority 2010, published 2013).
Values joined by “and” are separate entries in the source; they are usually repeats but may differ in a detail not shown here. Equal entries are not always repeated.

Experiments:
[1] = tested on: peritoneal murine macrophages; experiment: Phagocytosis of heat killed Candida albicans by murine macrophages (in vitro); assay type: cell-based
Experimental: The method of Lehrer (1981) [Lehrer, R. I. Ingestion and destruction of Candida albicans. (1981) In: Methods for studying mono-nuclear phagocytes. Eds. Adams, D. O., Edelson, P. J. and Koren, H. (Academic Press, New York) 693-7081 was followed. The percentage and average number of Candida albicans cells (heatkilled) ingested by peritoneal murine macrophages was calculated. AD-B-63B was tested at the doses of 1, 2.5, Sand 10 μg/mL (Table 4).

[2] = tested on: IL-2; experiment: Intracellular IL-2 expression in SRBC immunised mice; assay type: in vivo, Swiss albino mice; conditions: graded doses; most significant suppression at 10 mg/kg p.o.
Experimental: (§1) Estimation of intracellular cytokines: The animals were immunized as mentioned above. After 6 days of drug administration, the animals were challenged on day 7. After 48 h of challenge, the blood was collected in the tubes containing EDTA (anti-coagulant) from retro-orbital plexes of animals to determine the effect of test material on the expression of intracellular IL-2 and IFN-γ (Th1) and IL-4 (Th2) cytokines. In this study, PE labeled IL-2 monoclonal antibody was used in one set and PE labeled IFN-γ and FITC labelled IL-4 monoclonal antibody was used in the other set of experimentation (FIG. 7, 8, 9).

[3] = tested on: IFN-γ; experiment: Intracellular IFN-γ expression in SRBC immunised mice; assay type: in vivo, Swiss albino mice; conditions: graded doses; inhibition observed at 5 and 10 mg/kg p.o.
Experimental: as §1

[4] = tested on: cell mediated immune response (DTH); experiment: SRBC induced delayed type hypersensitivity (DTH) response; assay type: in vivo, mice; conditions: for FOOT PAD THICKNESS Mean ± SE: 24 h after SRBC challenge
Experimental: Test material was administered 2 h after immunization of mice by 200 μl of 5×10^9 SRBCs/ml. On 7th day, the thickness of the left hind foot was measured with spheromicrometer (0.01 mm pitch) and was considered as control. These mice were then challenged by injecting the 20 μl of 5×10^9 SRBCs/ml intradermally into the left hind footpad. The footpad thickness was measured again at 24 h after challenge (Doherty, 1981).

[5] = tested on: humoral antibody response; experiment: SRBC induced haemagglutination antibody titre (humoral immune response); assay type: in vivo, mice; conditions: for ANTIBODY TITRE MEAN ± S.E: blood on day 7
Experimental: 200 μl of 5×10^9 SRBC/ml was used to immunize the animals on day 0. Animals were treated with graded doses of AD-B-63B i.e., 1, 2.5, 5 and 10mg/kg p.o. for next six consecutive days. Blood samples were collected on day 7 for antibody titre assay. Haemagglutination antibody titre was determined following the microtitration technique described by Nelson and Midenhall, 1967. The value of highest serum dilution causing visible Haemagglutination was taken as titre. BSA saline alone served as control (Table 7).

[6] = tested on: Interleukin-1beta (IL-1β); experiment: Extracellular IL-1β in LPS stimulated murine neutrophils (ELISA, in vitro); assay type: cell-based; conditions: for Concentration of IL-1β produced Mean ± S.E.: LPS 10 ng/ml, 4 hr
Experimental: Neutrophils were separated from whole blood by Histopaque gradient method (Histopaque-No. 1077). Cell count was adjusted to approximately 10^5/[…]. Lipopolysaccharide, at the concentration of 10 ng/ml was used as stimulus in in-vitro studies. […] Extracellular IL-1β was estimated through ELISA (Table 2) [Weir, R. E., Morgan, A. R., Britton, W. J., Butlin, C. R., Dockrell, H. M., 1994. Development of a whole blood assay to measure T cell responses to leprosy: a new tool for immuno-epidemiological fields studies of leprosy immunity. J. Immunol. Methods. 176, 93; Hussain, R., Kaleem, A., Shahid, F., Dojki, M., Jamil, B., Mehmood, H., Dawood, G., Dockrell, H., 2002. Cytokine profiles using whole blood assays can discriminate between tuberculosis patients and healthy endemic controls in a BCG-vaccinated population. J. Immunol. Methods. 264, 95-108]

[7] = tested on: IL-4; experiment: Intracellular IL-4 expression in SRBC immunised mice; assay type: in vivo, Swiss albino mice; conditions: graded doses; significantly inhibited at 2.5, 5 and 10 mg/kg
Experimental: as §1

[8] = tested on: vascular permeability; experiment: Acetic acid-induced vascular permeability; assay type: in vivo, mice; conditions: for DYE CONCENTRATION: Evans blue, acetic acid i.p.
Experimental: Acetic acid-induced increased vascular permeability in mouse model is a capillary permeability assay. Reduction in the increased peritoneal vascular permeability indicates the suppression of the vascular response in the process of acute inflammation.
Mice were injected with […] of Evans blue dye (0.25% w/v in normal saline) intravenously after 30 min of oral administration of the drug. Fifteen minutes later, the mice were injected intraperitoneally (1 ml/100 g of body weight) with freshly prepared 0.6% of acetic acid (v/v) in normal saline. After 30 min of acetic acid injection, the peritoneal cavities were washed with 5 ml of heparinised sterile normal saline and centrifuged (3000×g) for 10 min Absorbance of the supernatant was measured at 610 nm using a spectrophotometer (Table 3) [Whittle B. A. The use of changes in capillary permeability in mice to distinguish between narcotic and non-narcotic analgesics. Brit J Pharmacol 1964; 2: 246-253].

## CC(=O)OC(C)(C)/C=C/C(=O)[C@](C)(O)[C@H]1[C@H](O)C[C@@]2(C)[C@@H]3CC=C4[C@@H](C=C(O[C@@H]5O[C@H](CO)[C@@H](O)[C@H](O)[C@H]5O)C(=O)C4(C)C)[C@]3(C)C(=O)C[C@]12C [AD-B-63B, 2-O-β-D-glucopyranosyl cucurbitacin E]
[1]; 1 μg/ml
  % phagocytosis [in vitro study] Mean ± S.E.: 24.00 ± 2.32%
  percent decrease in phagocytosis: (10.48%↓)
[1]; 5 μg/ml
  % phagocytosis [in vitro study] Mean ± S.E.: 18.22 ± 2.11%
[1]; 10 μg/ml
  % phagocytosis [in vitro study] Mean ± S.E.: 17.33 ± 1.42%
[2]
  expression of intracellular IL-2: decrease
[3]
  expression of IFN-γ: decrease
[4]; 1 mg/kg p.o.
  PERCENT INHIBITION (DTH response): 15.21↓ %
  FOOT PAD THICKNESS Mean ± SE: 0.78 ± 0.01 mm
[4]; 5 mg/kg p.o.
  PERCENT INHIBITION (DTH response): 28.26↓ %
  FOOT PAD THICKNESS Mean ± SE: 0.66 ± 0.01 mm
[4]; 10 mg/kg p.o.
  PERCENT INHIBITION (DTH response): 29.35↓ %
  FOOT PAD THICKNESS Mean ± SE: 0.65 ± 0.02 mm
[4]; orally administered, graded doses
  SRBC induced DTH reaction: dose dependent decrease
[5]; 1 mg/kg p.o.
  % ACTIVITY (decrease in antibody titre): 13.47↓ %
[5]; 1 mg/kg p.o. for six days
  ANTIBODY TITRE MEAN ± S.E: 5.33 ± 0.45
[5]; 5 mg/kg p.o.
  % ACTIVITY (decrease in antibody titre): 33.11↓ %
[5]; 5 mg/kg p.o. for six days
  ANTIBODY TITRE MEAN ± S.E: 4.12 ± 0.33
[5]; 10 mg/kg p.o.
  % ACTIVITY (decrease in antibody titre): 35.06↓ %
[5]; 10 mg/kg p.o. for six days
  ANTIBODY TITRE MEAN ± S.E: 4.00 ± 0.31
[5]; significant decrease at 2.5, 5 and 10 mg/kg p.o.
  antibody synthesis (haemagglutination antibody titre): inhibition of antibody synthesis
[6]; 0.5 μg/ml
  % activity IL-1β expression against LPS control (decrease): 10.25↓ %
  Concentration of IL-1β produced Mean ± S.E.: 120.91 ± 2.61 pg/mL
[6]; 1 μg/ml
  % activity IL-1β expression against LPS control (decrease): 18.66↓ %
  Concentration of IL-1β produced Mean ± S.E.: 109.58 ± 3.21 pg/mL
[6]; 5.0 μg/ml
  % activity IL-1β expression against LPS control (decrease): 30.90% and 30.90↓ %
  Concentration of IL-1β produced Mean ± S.E.: 93.08 ± 2.61 pg/mL
[6]; 10.0 μg/ml
  % activity IL-1β expression against LPS control (decrease): 34.96% and 34.96↓ %
  Concentration of IL-1β produced Mean ± S.E.: 87.61 ± 1.99 pg/mL
[6]; […]
  Concentration of IL-1β produced Mean ± S.E.: 106.66 ± 2.44 pg/mL
[7]
  expression of intracellular IL-4: decrease
[8]; 1 mg/kg p.o.
  percent reduction of dye concentration: (10.71%↓)
  DYE CONCENTRATION: 0.50 ± 0.02 μg/25 g mouse
[8]; 5 mg/kg p.o.
  percent reduction of dye concentration: 32.14%
  DYE CONCENTRATION: 0.38 ± 0.02 μg/25 g mouse
[8]; 5 mg/kg p.o., listed as AD-B-63-B
  percent reduction of dye concentration: (32.14%↓)
[8]; 10 mg/kg p.o.
  percent reduction of dye concentration: 35.71%
  DYE CONCENTRATION: 0.36 ± 0.02 μg/25 g mouse
[8]; 10 mg/kg p.o., listed as AD-B-63-B
  percent reduction of dye concentration: (35.71%↓)
